According to patent US20240158446A1, “CYCLIC COMPOUND HAVING SELECTIVE INHIBITORY ACTION ON KRAS OVER HRAS AND NRAS” (CHUGAI SEIYAKU KABUSHIKI KAISHA, priority 2021, published 2024):

Experiments:
[1] = molecular target: GDP-bound KRAS wild-type protein (Homo sapiens, UniProt P01116); experiment: Binding to KRAS by surface plasmon resonance (SPR), Single Cycle Kinetics; conditions: SPR Single Cycle Kinetics, GDP-bound KRAS wild-type protein, 1:1 binding model; read-out: KRAS KD
[2] = molecular target: GDP-bound NRAS wild-type protein (Homo sapiens, UniProt P01111); experiment: Binding to NRAS by surface plasmon resonance (SPR), Single Cycle Kinetics; conditions: SPR KD ratio NRAS/KRAS, class symbols
GDP-bound NRAS wild-type protein, sequence (P01111 whole entry): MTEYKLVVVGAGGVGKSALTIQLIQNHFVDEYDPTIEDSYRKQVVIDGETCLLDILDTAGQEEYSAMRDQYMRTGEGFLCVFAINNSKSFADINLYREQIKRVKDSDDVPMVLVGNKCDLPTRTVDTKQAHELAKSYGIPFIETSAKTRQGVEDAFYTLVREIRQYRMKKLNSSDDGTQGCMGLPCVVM

[3] = molecular target: GDP-bound HRAS wild-type protein (Homo sapiens, UniProt P01112); experiment: Binding to HRAS by surface plasmon resonance (SPR), Single Cycle Kinetics; conditions: SPR KD ratio HRAS/KRAS, class symbols
GDP-bound HRAS wild-type protein, sequence (P01112 whole entry): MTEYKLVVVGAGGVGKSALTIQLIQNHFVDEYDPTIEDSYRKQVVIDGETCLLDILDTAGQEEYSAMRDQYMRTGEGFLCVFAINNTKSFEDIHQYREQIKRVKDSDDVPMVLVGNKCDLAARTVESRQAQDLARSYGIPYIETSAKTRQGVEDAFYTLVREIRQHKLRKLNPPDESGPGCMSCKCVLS

GDP-bound KRAS wild-type protein, sequence (P01116 whole entry): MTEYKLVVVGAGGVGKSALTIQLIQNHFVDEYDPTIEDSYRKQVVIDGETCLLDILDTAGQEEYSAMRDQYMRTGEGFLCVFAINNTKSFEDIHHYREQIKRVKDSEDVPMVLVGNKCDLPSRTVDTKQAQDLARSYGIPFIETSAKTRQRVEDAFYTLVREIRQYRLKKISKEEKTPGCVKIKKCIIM

Kd [1] [pM]	SMILES	NRAS/KRAS (ratio of KD value with respect to GDP-bound NRAS wild-type protein to KD value with respect to KRAS) [2]	HRAS/KRAS (ratio of KD value with respect to GDP-bound HRAS wild-type protein to KD value with respect to KRAS) [3]
200	CCO[C@@H]1C[C@H]2C(=O)NC3(CC(C)(C)C3)C(=O)N(C)[C@@H](C(CC)CC)C(=O)N(C)[C@H](C(=O)N(C)C)CC(=O)N(C)[C@H]3CCC/C=C/c4ccc(cc4)C[C@@H](C(=O)N(C)CC(=O)N[C@@H](CCc4ccc(Cl)c(Cl)c4)C(=O)N2C1)N1CC/C=C\C[C@@H](C1=O)N(C)C(=O)CN(C)C(=O)[C@H]([C@@H](C)CC)NC3=O [PP2580]	AA (a compound having 20 or more is denoted as AA)	A (a compound having 10 or more and less than 20 is denoted as A)
210	CCO[C@@H]1C[C@H]2C(=O)NC3(CC(C)(C)C3)C(=O)N(C)[C@@H](C(CC)CC)C(=O)N(C)[C@H](C(=O)N3CCCC3)CC(=O)N(C)[C@H]3CCC/C=C/c4ccc(cc4)C[C@@H](C(=O)N(C)CC(=O)N[C@@H](CCc4ccc(Cl)c(Cl)c4)C(=O)N2C1)N1CC/C=C\C[C@@H](C1=O)N(C)C(=O)CN(C)C(=O)[C@H]([C@@H](C)CC)NC3=O [PP2581]	AA (a compound having 20 or more is denoted as AA)	A (a compound having 10 or more and less than 20 is denoted as A)
110	CCO[C@@H]1C[C@H]2C(=O)NC3(CC(C)(C)C3)C(=O)N(C)[C@@H](C3CCCC3)C(=O)N(C)[C@H](C(=O)N3CCCC3)CC(=O)N(C)[C@H]3CCC/C=C/c4ccc(cc4)C[C@@H](C(=O)N(C)CC(=O)N[C@@H](CCc4cc(F)c(C(F)(F)F)c(F)c4)C(=O)N2C1)N1CC/C=C\C[C@@H](C1=O)N(C)C(=O)CN(C1CC1)C(=O)[C@H]([C@@H](C)CC)NC3=O [PP2583]	A (a compound having 10 or more and less than 20 is denoted as A)	A (a compound having 10 or more and less than 20 is denoted as A)
130	CCO[C@@H]1C[C@H]2C(=O)NC3(CC(C)(C)C3)C(=O)N(C)[C@@H](C3CCCC3)C(=O)N(C)[C@H](C(=O)N(C)CC)CC(=O)N(C)[C@H]3CCCC/C=C/c4ccc(cc4)C[C@@H](C(=O)N(C)CC(=O)N[C@@H](CCc4ccc(Cl)c(Cl)c4)C(=O)N2C1)N1CC/C=C\C[C@@H](C1=O)N(C)C(=O)CN(C)C(=O)[C@H]([C@@H](C)CC)NC3=O [PP2592]	A (a compound having 10 or more and less than 20 is denoted as A)	A (a compound having 10 or more and less than 20 is denoted as A)
150	CCO[C@@H]1C[C@H]2C(=O)NC3(CC(C)(C)C3)C(=O)N(C)[C@@H](C3CCCC3)C(=O)N(C)[C@H](C(=O)N3CCCC3)CC(=O)N(C)[C@H]3CCCC/C=C/c4ccc(cc4)C[C@@H](C(=O)N(C)CC(=O)N[C@@H](CCc4ccc(Cl)c(Cl)c4)C(=O)N2C1)N1CC/C=C\C[C@@H](C1=O)N(C)C(=O)CN(C)C(=O)[C@H]([C@@H](C)CC)NC3=O [PP2593]	A (a compound having 10 or more and less than 20 is denoted as A)	A (a compound having 10 or more and less than 20 is denoted as A)
100	CCC(CC)[C@H]1C(=O)N(C)[C@H](C(=O)N(C)C)CC(=O)N(C)[C@H]2CCC/C=C/c3ccc(cc3)C[C@@H](C(=O)N(C)CC(=O)N[C@@H](CCc3cc(F)c(C(F)(F)F)c(F)c3)C(=O)N3C[C@H](OC(C)C)C[C@H]3C(=O)NC3(CC(C)(C)C3)C(=O)N1C)N1CC/C=C\C[C@@H](C1=O)N(C)C(=O)CN(C)C(=O)[C@H]([C@@H](C)CC)NC2=O [PP2594]	A (a compound having 10 or more and less than 20 is denoted as A)	A (a compound having 10 or more and less than 20 is denoted as A)
170	CC[C@H](C)[C@@H]1NC(=O)[C@@H]2CCC/C=C/c3ccc(cc3)C[C@@H](C(=O)N(C)CC(=O)N[C@@H](CCc3ccc(Cl)c(Cl)c3)C(=O)N3C[C@H](OC(C)C)C[C@H]3C(=O)NC3(CC(C)(C)C3)C(=O)N(C)[C@@H](C3CCCC3)C(=O)N(C)[C@H](C(=O)N(C)CC)CC(=O)N2C)N2CC/C=C\C[C@@H](C2=O)N(C)C(=O)CN(C)C1=O [PP2595]	A (a compound having 10 or more and less than 20 is denoted as A)	B (a compound having 3 or more and less than 10 is denoted as B)
160	CC[C@H](C)[C@@H]1NC(=O)[C@@H]2CCC/C=C/c3ccc(cc3)C[C@@H](C(=O)N(C)CC(=O)N[C@@H](CCc3ccc(Cl)c(Cl)c3)C(=O)N3C[C@H](OC(C)C)C[C@H]3C(=O)NC3(CC(C)(C)C3)C(=O)N(C)[C@@H](C3CCCC3)C(=O)N(C)[C@H](C(=O)N3CCCC3)CC(=O)N2C)N2CC/C=C\C[C@@H](C2=O)N(C)C(=O)CN(C)C1=O [PP2596]	A (a compound having 10 or more and less than 20 is denoted as A)	A (a compound having 10 or more and less than 20 is denoted as A)

The next lines start with the molecule.

SMILES	Kd [1] [pM]	NRAS/KRAS (ratio of KD value with respect to GDP-bound NRAS wild-type protein to KD value with respect to KRAS) [2]	HRAS/KRAS (ratio of KD value with respect to GDP-bound HRAS wild-type protein to KD value with respect to KRAS) [3]
CCO[C@@H]1C[C@H]2C(=O)NC3(CC(C)(C)C3)C(=O)N(C)[C@@H](C3CCCC3)C(=O)N(C)[C@H](C(=O)N3CCCC3)CC(=O)N(C)[C@H]3CCC/C=C/c4ccc(cc4)C[C@@H](C(=O)N(C)CC(=O)N[C@@H](CCc4cc(F)c(C(F)(F)F)c(F)c4)C(=O)N2C1)N1CC/C=C\C[C@@H](C1=O)N(C)C(=O)CN(C)C(=O)[C@H]([C@@H](C)CC)NC3=O [PP2574, (1S,7S,11R,13S,19S,22S,26S,29S,35S,37Z,47E)-19-cyclopentyl-7-[2-[3,5-difluoro-4-(trifluoromethyl)phenyl]ethyl]-11-ethoxy-3,3′,3′,18,21,25,31,34-octamethyl-29-[(1S)-1-methylpropyl]-22-(pyrrolidine-1-carbonyl)spiro[3,6,9,15,18,21,25,28,31,34,41-undecazapentacyclo[24.15.10.2^43,46.1^35,41.0^9,13]tetrapentaconta-37,43(53),44,46(52),47-pentaene-16,1′-cyclobutane]-2,5,8,14,17,20,24,27,30,33,54-undecone]	51	A (a compound having 10 or more and less than 20 is denoted as A)	A (a compound having 10 or more and less than 20 is denoted as A)
CCO[C@@H]1C[C@H]2C(=O)NC3(CC(C)(C)C3)C(=O)N(C)[C@@H](C(CC)CC)C(=O)N(C)[C@H](C(=O)N(C)C)CC(=O)N(C)[C@H]3CCC/C=C/c4ccc(cc4)C[C@@H](C(=O)N(C)CC(=O)N[C@@H](CCc4cc(F)c(C(F)(F)F)c(F)c4)C(=O)N2C1)N1CC/C=C\C[C@@H](C1=O)N(C)C(=O)CN(C)C(=O)[C@H]([C@@H](C)CC)NC3=O [PP2575]	86	A (a compound having 10 or more and less than 20 is denoted as A)	A (a compound having 10 or more and less than 20 is denoted as A)
CCO[C@@H]1C[C@H]2C(=O)NC3(CC(C)(C)C3)C(=O)N(C)[C@@H](C(CC)CC)C(=O)N(C)[C@H](C(=O)N3CCCC3)CC(=O)N(C)[C@H]3CCC/C=C/c4ccc(cc4)C[C@@H](C(=O)N(C)CC(=O)N[C@@H](CCc4cc(F)c(C(F)(F)F)c(F)c4)C(=O)N2C1)N1CC/C=C\C[C@@H](C1=O)N(C)C(=O)CN(C)C(=O)[C@H]([C@@H](C)CC)NC3=O [PP2576]	140	A (a compound having 10 or more and less than 20 is denoted as A)	A (a compound having 10 or more and less than 20 is denoted as A)
CCO[C@@H]1C[C@H]2C(=O)NC3(CC(C)(C)C3)C(=O)N(C)[C@@H](C3CCCC3)C(=O)N(C)[C@H](C(=O)N(C)CC)CC(=O)N(C)[C@H]3CCC/C=C/c4ccc(cc4)C[C@@H](C(=O)N(C)CC(=O)N[C@@H](CCc4ccc(Cl)c(Cl)c4)C(=O)N2C1)N1CC/C=C\C[C@@H](C1=O)N(C)C(=O)CN(C)C(=O)[C@H]([C@@H](C)CC)NC3=O [PP2577]	120	A (a compound having 10 or more and less than 20 is denoted as A)	A (a compound having 10 or more and less than 20 is denoted as A)
CCO[C@@H]1C[C@H]2C(=O)NC3(CC(C)(C)C3)C(=O)N(C)[C@@H](C3CCCC3)C(=O)N(C)[C@H](C(=O)N3CCCCC3)CC(=O)N(C)[C@H]3CCC/C=C/c4ccc(cc4)C[C@@H](C(=O)N(C)CC(=O)N[C@@H](CCc4ccc(Cl)c(Cl)c4)C(=O)N2C1)N1CC/C=C\C[C@@H](C1=O)N(C)C(=O)CN(C)C(=O)[C@H]([C@@H](C)CC)NC3=O [PP2578]	270	AA (a compound having 20 or more is denoted as AA)	A (a compound having 10 or more and less than 20 is denoted as A)
CCO[C@@H]1C[C@H]2C(=O)NC3(CC(C)(C)C3)C(=O)N(C)[C@@H](C3CCCC3)C(=O)N(C)[C@H](C(=O)N3CCCCC3)CC(=O)N(C)[C@H]3CC/C=C/c4ccc(cc4)C[C@@H](C(=O)N(C)CC(=O)N[C@@H](CCc4ccc(Cl)c(Cl)c4)C(=O)N2C1)N1CC/C=C\C[C@@H](C1=O)N(C)C(=O)CN(C)C(=O)[C@H]([C@@H](C)CC)NC3=O [PP2597]	510	A (a compound having 10 or more and less than 20 is denoted as A)	A (a compound having 10 or more and less than 20 is denoted as A)
